Test [1] deals with Mus musculus. Briefly: Time of recovery of spontaneous movement (SMT) in seconds was measured after administration of 10 mg/kg orally in mice for the promotional effect on recovery from coma. The test is classed as functional. The following applies: route oral.
Test [2] concerns Mus musculus. The test is described as follows: Spontaneous movement (SMT) in seconds, was measured after oral administration of 30 mg/kg in mice to test for promoting effects on recovery from coma. The test is classed as functional.
For test [3], the system named is Mus musculus. Briefly: Time of recovery of righting reflux (RRT) in seconds was measured after oral administration of 30 mg/kg in mice for the promotional effect on recovery from coma. The test is classed as functional.
The test system of test [4] is Mus musculus. Briefly: Time of recovery of righting reflux (RRT) in seconds was measured after oral administration of 100 mg/kg orally in mice for the promotional effect on recovery from coma. The test is classed as functional.
In test [5] the test system is Mus musculus. The test is described as follows: Time of recovery of righting reflux (RRT) in seconds was measured after oral administration of 10 mg/kg orally in mice for the promotional effect on recovery from coma. The test is classed as functional.
The subject of test [6] is Mus musculus. The test is described as follows: Time of recovery of righting reflux (RRT) in seconds was measured after oral administration of 30 mg/kg orally in mice for the promotional effect on recovery from coma. The test is classed as functional.
Test [7] has as its system Mus musculus. The test is described as follows: Time of recovery of spontaneous movement (SMT) in seconds was measured after administration of 100 mg/kg orally in mice for the promotional effect on recovery from coma. The test is classed as functional.
Test [8] deals with Mus musculus. The test is described as follows: Antihypoxic effect by the survival time (SVT) in mice at a dose of 3 mg/kg administered intraperitoneally. The following applies: route intraperitoneal. The test is classed as functional.
For test [9], the system named is Mus musculus. The test is described as follows: Antihypoxic effect by the ratio of survival time (SVT) of test mice to that of control group at a dose of 10 mg/kg administered intraperitoneally. The test is classed as functional. Particulars: route intraperitoneal.
The subject of test [10] is Mus musculus. The test is described as follows: Antihypoxic effect tested by the ratio of survival time (SVT) of test mice to that of control group, dosed intraperitoneally at 30 mg/kg. The test is classed as functional. The following applies: route intraperitoneal, 30 mg/kg.
The subject of test [11] is Mus musculus. The test is described as follows: Antihypoxic effect tested by the ratio of survival time (SVT) of test mice to that of control group, dosed orally 30 mg/kg. The test is classed as functional. The following applies: route oral.
For test [12], the system named is Mus musculus. Briefly: Compound was tested for the anesthetic effect and the sleeping time (ST) was recorded at a dose of 10 mg/kg administered intraperitoneally. The test is classed as functional. The following applies: route intraperitoneal.
Test [13] concerns Mus musculus. The test is described as follows: Compound was tested for the anesthetic effect and the sleeping time (ST) was recorded at a dose of 30 mg/kg administered intraperitoneally. The test is classed as functional. Particulars: route intraperitoneal.
The subject of test [14] is Mus musculus. The test is described as follows: Compound was tested for the anesthetic effect and the sleeping time (ST) was recorded at a dose of 3 mg/kg administered intraperitoneally. The test is classed as functional. The following applies: route intraperitoneal.
In test [15] the test system is Mus musculus. The test is described as follows: Antihypoxic effect by the ratio of survival time (SVT) of test mice to that of control group at a dose of 100 mg/kg administered intraperitoneally. The test is classed as functional.
In test [16] the test system is Mus musculus. The test is described as follows: Antihypoxic effect by the ratio of survival time (SVT) of test mice to that of control group at a dose of 100 mg/kg administered orally. The test is classed as functional, organism-based. Details: dose 100 mg/kg.
For test [17], the system named is Mus musculus. The test is described as follows: Time of recovery of righting reflux (RRT) in seconds was measured after administration of 100 mg/kg orally in mice for the promotional effect on recovery from coma. The test is classed as functional.
Test [18] has as its system Mus musculus. The test is described as follows: Time of recovery of spontaneous movement (SMT) in seconds was measured after administration of 1 mg/kg orally in mice for the promotional effect on recovery from coma. The test is classed as functional. The following applies: route oral.
For test [19], the system named is Mus musculus. The test is described as follows: Time of recovery of righting reflux (RRT) in seconds was measured after administration of 0.3 mg/kg orally in mice for the promotional effect on recovery from coma. The test is classed as functional. Particulars: route oral.
Test [20] deals with Mus musculus. Briefly: Time of recovery of spontaneous movement (SMT) in seconds was measured after administration of 0.3 mg/kg orally in mice for the promotional effect on recovery from coma. The test is classed as functional. The following applies: route oral.
Test [21] concerns Mus musculus. The test is described as follows: Time of recovery of righting reflux (RRT) in seconds was measured after administration of 3 mg/kg orally in mice for the promotional effect on recovery from coma. The test is classed as functional. The following applies: route oral.
The subject of test [22] is Mus musculus. Briefly: Time of recovery of spontaneous movement (SMT) in seconds was measured after administration of 3 mg/kg orally in mice for the promotional effect on recovery from coma. Particulars: route oral. The test is classed as functional.
Test [23] has as its system Mus musculus. The test is described as follows: Compound was tested for the anesthetic effect and the sleeping time (ST) was recorded at a dose of 3 mg/kg administered orally. The test is classed as functional.
Test [24] has as its system Mus musculus. Briefly: Time of recovery of righting reflux (RRT) in seconds was measured after administration of 1 mg/kg orally in mice for the promotional effect on recovery from coma. The test is classed as functional. The following applies: route oral.
The test system of test [25] is Mus musculus. Briefly: Compound was tested for the anesthetic effect and the sleeping time (ST) was recorded at a dose of 10 mg/kg administered orally. The test is classed as functional.
In test [26] the test system is Mus musculus. The test is described as follows: Compound was tested for the anesthetic effect and the sleeping time (ST) was recorded at a dose of 1 mg/kg administered orally. The test is classed as functional.
The subject of test [27] is Mus musculus. The test is described as follows: Antihypoxic effect by the survival time (SVT) in mice at a dose of 30 mg/kg administered orally. The test is classed as functional.
For test [28], the system named is Mus musculus. Briefly: Antihypoxic effect by the ratio of survival time (SVT) of test mice to that of control group at a dose of 30 mg/kg administered subcutaneously. The following applies: route subcutaneous. The test is classed as functional.
Test [29] concerns Mus musculus. Briefly: Time of recovery of righting reflux (RRT) in seconds was measured after intraperitoneal administration of 100 mg/kg in mice for the promotional effect on recovery from coma. The test is classed as functional.
For test [30], the system named is Mus musculus. The test is described as follows: Time of recovery of righting reflux (RRT) in seconds was measured after intraperitoneal administration of 10 mg/kg in mice for the promotional effect on recovery from coma. The test is classed as functional.
Test [31] relates to Mus musculus. Briefly: Time of recovery of righting reflux (RRT) in seconds was measured after intraperitoneal administration of 30 mg/kg in mice for the promotional effect on recovery from coma. The test is classed as functional.
The test system of test [32] is Mus musculus. Briefly: Antihypoxic effect by the survival time (SVT) in mice at a dose of 100 mg/kg administered intraperitoneally. The test is classed as functional. The following applies: route intraperitoneal.
For test [33], the system named is Mus musculus. Briefly: Antihypoxic effect by the survival time (SVT) in mice at a dose of 100 mg/kg administered orally. The test is classed as functional.
In test [34] the test system is Mus musculus. The test is described as follows: Antihypoxic effect by the survival time (SVT) in mice at a dose of 10 mg/kg administered intraperitoneally. The test is classed as functional. Particulars: route intraperitoneal.
For test [35], the system named is Mus musculus. Briefly: Antihypoxic effect by the survival time (SVT) in mice at a dose of 30 mg/kg administered intraperitoneally. The test is classed as functional. The following applies: route intraperitoneal.
In test [36] the test system is Mus musculus. The test is described as follows: Time of recovery of spontaneous movement (SMT) in seconds was measured after intraperitoneal administration of 30 mg/kg in mice for the promotional effect on recovery from coma. The test is classed as functional.

This note sets out measurements from ChEMBL document CHEMBL1125278, “Novel cerebroprotective agents with central nervous system stimulating activity. 2. Synthesis and pharmacology of the 1-(acylamino)-7-hydroxyindan derivatives” (1991).

Values joined by “and” are separate entries in the source; they are usually repeats but may differ in a detail not shown here. Equal entries are not always repeated.

Take `Cc1cc(C)c2c(c1O)C(NC(=O)CN1CCN(C)CC1)C(C)(C)C2` (stereo unspecified): the SMT is 60.9 s in test [1]; 43.1 s and 49.8 s in test [2] (30 mg/kg); 36.2 s in test [7] (route oral). Further, the RRT was 54.9 s in [3], 25.8 s in test [4], 61.2 s in test [5] and 45.7 s in test [6]. For the same molecule, the SVT in test [8] is 93%; in test [9] it was 92.5%; in [10] it was 145.6% and 145.2%; in test [11] it was 86.4%. Also, the ST in test [12] came out at 78.8 s; in test [13], 84.3 s; in test [14], 92.7 s.

With VITAMIN E, the SMT in test [7] is 83.5 s. Also, the SVT in [15] stood at 96.7%; in test [16] it was 178%. Moreover, in test [17], the RRT was 92.2 s.

As to `COc1cccc(N2CCN(CC(=O)NC3c4c(O)c(C)cc(C)c4CC3(C)C)CC2)c1` (stereo unspecified), the SMT in test [18] was 56.2 s; in test [20], 66.5 s; in test [2], 46 s; in test [22], 45.3 s. Further, the RRT in test [19] was found to be 72.7 s; in [3], 48.3 s; in test [21], 43.6 s; in [24], 58 s. For the same molecule, the SVT in test [8] is 153.5%; in test [9] it was 176.4%; in [10], 169.1% and 206.7%; in [11], 135.4%. The ST in test [23] was 84.8 s; in [25], 71.4 s; in test [26], 92.7 s.

In test [2], `Cc1cc(C)c2c(c1O)C(NC(=O)CN1CCN(c3cccc(Cl)c3)CC1)CC2` (stereo unspecified) had an SMT of 77.4 s. This molecule gave an RRT in test [3] of 72.1 s. Besides, the results for the SVT in test [27] and in test [15] (route intraperitoneal) were 99.2% and 168.9%, respectively.

Regarding `CCC(C)c1cc(C)c2c(c1O)C(N)CC2` (stereo unspecified), in test [2], the SMT is on record as 48.9 s. This molecule also had an RRT in test [3] of 44.2 s. Also, the SVT in [11] amounted to 166.5%; in [28], 276.5%.

With `Cc1cc(C(C)(C)C)c(O)c(C(C)(C)C)c1` [BUTYLATED HYDROXYTOLUENE], the RRT in test [29] turned out to be 98.7 s; in test [30] it was 96.4 s; in test [31] it was 74.5 s; in test [17] (route oral) it was 69.6 s. The SVT was 358.8% and 583.9% in test [32]; 87.6% in [33]; 140.3% in test [34]; 109.4% in test [35]. The SMT in [7] (route oral) was 80.9 s; in [36] it was 110.4 s and 114.7 s and 115.7 s.
